From publication PMC2011106, “Structure/activity relationships for the enhancement by electron-affinic drugs of the anti-tumour effect of CCNU” (British Journal of Cancer, 1982)
“Also recorded” adds a separate entry of the source. Structures can show the parent of a compound that is named as a salt. Where two headings read alike, the source gives them in different places.

Assays:
KHT sarcoma = test: regrowth-delay assay: enhancement of the anti-tumour effect of CCNU; type: in vivo, C3H mice; conditions: for enhancement of CCNU response relative to MISO: 2.5 mmol/kg 30 min before 10 mg/kg CCNU; for growth delay, test compound given alone: without CCNU; for sensitizer dose/response curve, activity: Fig. 4, various sensitizer doses
KHT tumour = tested on: KHT tumour; parameters: method as in Rauth et al. (1978); conditions: same tumour and mouse strain, similar timing; ref Rauth et al. (1978); cited from earlier work
[1] = for toxicity at 2.5 mmol/kg: 2.5 mmol/kg i.p.; for toxicity: dose not stated, tested at MTD
RIF-1 sarcoma = tested on: RIF-1 sarcoma; parameters: method as in Siemann (1982); conditions: 5 mmol/kg; ref Siemann (1982); cited from earlier work
ascites L1210 leukaemia = tested on: ascites L1210 leukaemia; parameters: method as in Klubes et al., 1979; conditions: mice; ref Klubes et al., 1979; cited from earlier work
[2] = at close to maximum tolerated dose (MTD, below 2.5 mmol/kg) 30 min before 10 mg/kg CCNU

In the case of `O=[N+]([O-])c1nccn1CC(O)CO` (stereo not shown) [DEMIS, desmethylmisonida- zole], the “enhancement of CCNU response relative to MISO” value (KHT sarcoma) is listed as “considerably less active than MISO” and the “in vivo radiosensitization” value (KHT tumour) is listed as “good radiosensitization”.

For `Cn1cnc([N+](=O)[O-])c1Sc1ncnc2nc[nH]c12` [azathioprine], the “toxicity at 2.5 mmol/kg” value [1] was “toxic”, the “enhancement of CCNU response” value (KHT sarcoma; 1.4 mmol/kg, compared with 2.5 mmol/kg MISO, 10 mg/kg CCNU) was “superior to 2-5 mmol/kg MISO” and the “enhancement of CCNU response” value (KHT sarcoma; [2]) was “more active than MISO”. The “growth delay, test compound given alone” value (KHT sarcoma) was “about 1 day”.

In the case of `O=C1c2ccccc2C(=O)c2cc(S(=O)(=O)O)ccc21` [anthraquinone sulphonate, anthraquinone-2-sulphonate], the “toxicity at 2.5 mmol/kg” value [1] is reported as “non-toxic”, the “enhancement of CCNU response relative to MISO” value (KHT sarcoma) is reported as “reasonable activity” and the “decrease in body temperature” value (2.5 mmol/kg) is reported as 5-6 °C.

For `O=[N+]([O-])c1cncn1CCN1CCOCC1` [nimorazole], the “enhancement of CCNU response relative to MISO” value (KHT sarcoma) was “activities similar or even superior to MISO”.

In the case of `NC(=O)N/N=C/c1ccc([N+](=O)[O-])o1` [nitrofurazone], the “toxicity at 2.5 mmol/kg” value [1] is reported as “toxic” and the “enhancement of CCNU response” value (KHT sarcoma; [2]) is reported as “reasonable activity; also recorded: reasonably active, but less than 2-5 mmol/kg MISO”.

In the case of `c1c[nH]cn1` [imidazole], the “enhancement of CCNU response” value (KHT sarcoma; 5 mmol/kg (not shown), 10 mg/kg CCNU) is reported as “ineffective”.

With `Cc1ncc([N+](=O)[O-])n1CCO` [METRO, metronidazole] the “enhancement of CCNU response relative to MISO” value (KHT sarcoma) was “activities similar or even superior to MISO”, the “tumour response” value (KHT sarcoma; 10 mmol/kg + 10 mg/kg CCNU, Fig. 4) was “about the same as with 2-5 mmol/kg MISO” and the “sensitizer dose/response curve, activity” value (KHT sarcoma; 10 mg/kg CCNU) was “rather less active than MISO”. The “decrease in body temperature” value (10 mmol/kg) was 10 °C.

In the case of `NC(=O)c1cc(N2CC2)c([N+](=O)[O-])cc1[N+](=O)[O-]` [CB 1954, 2,4-dinitro-5-aziridinylbenzamide], the “toxicity at 2.5 mmol/kg” value [1] is reported as “toxic”, the “toxicity” value [1] is reported as “rather toxic” and the “enhancement of CCNU response” value (KHT sarcoma; mouse, in vivo) is reported as “no enhancement of CCNU response at MTD”. For the same molecule, the “growth delay, test compound given alone” value (KHT sarcoma) was “about 1 day”.

For `Cn1cnc([N+](=O)[O-])c1S(=O)(=O)Oc1ccccc1` [NSC 38087], the “toxicity at 2.5 mmol/kg” value [1] was “toxic”, the “toxicity” value [1] was “highly toxic” and the “enhancement of CCNU response” value (KHT sarcoma; [2]) was “little activity at MTD”.

In the case of `O=NN(CCCl)C(=O)NC1CCCCC1` [CCNU, 1-(2-chloroethyl)-3-cyclohexyl-1-nitrosurea], the median growth delay (KHT sarcoma; CCNU 20 mg/kg alone, 11 independent experiments) is reported as 10 days.

With `CC1=C(C)C(=O)C(C)=C(C)C1=O` [duroquinone] the “toxicity” value [1] was “quite toxic” and the “enhancement of CCNU response” value (KHT sarcoma; [2]) was “little or no activity”.

With `O=C(Cn1ccnc1[N+](=O)[O-])NCc1ccccc1` [BENZO, benznidazole] the “enhancement of CCNU response relative to MISO” value (KHT sarcoma) was “most active”, the “dose-modifying factor (DMF)” value (KHT sarcoma; 2.5 mmol/kg + 10 mg/kg CCNU compared with 20 mg/kg CCNU alone) was greater than 2 and the “sensitizer dose/response curve, activity” value (KHT sarcoma; 10 mg/kg CCNU) was “good activity at doses down to 0-05-0-1 mmol/kg”. The “activity relative to MISO at low doses” value (KHT sarcoma; low doses 0.1-0.9 mmol/kg, 10 mg/kg CCNU) was “considerably more active than MISO”.

In the case of `O=C(Cn1ccnc1[N+](=O)[O-])NCCO` [SR-2508], the “enhancement of RIF-1 tumour response to CCNU” value (RIF-1 sarcoma) is given as “Some enhancement”.

For `COCC(O)Cn1ccnc1[N+](=O)[O-]` (stereo not shown) [MISO, misonidazole], the “Activity Index (AI) for enhancement of CCNU effect” value (KHT sarcoma; mouse, in vivo, 10 mg/kg) was 1 and the “decrease in body temperature” value (mouse, in vivo) was 1-2.

For `CC1=CC(=O)c2ccccc2C1=O` [menadione], the “toxicity” value [1] was “quite toxic” and the “enhancement of CCNU response” value (KHT sarcoma; [2]) was “little or no activity”.

For `CCCC(C(=O)OCCN(CC)CC)(c1ccccc1)c1ccccc1` [SKF 525A, proadifen hydrochloride], the “effect on LD50 of methyl-CCNU” value (ascites L1210 leukaemia) is given as “reducing the LD50”, the “response of ascites L1210 leukaemia to methyl-CCNU” value (ascites L1210 leukaemia) is given as “increased the response” and the “enhancement of CCNU response” value (KHT sarcoma; 0.13 mmol/kg, 10 mg/kg CCNU, 10 mg/kg) is given as “increased the anti-tumour effect of CCNU; also recorded: active”.

For `O=[N+]([O-])c1nccn1CC(O)CN1CCCCC1` (stereo not shown) [compound 13], the “enhancement of CCNU response relative to MISO” value (KHT sarcoma) was “Neither was more effective than MISO” and the “enhancement of CCNU response relative to MISO” value (KHT sarcoma; listed as Ro 03-8799) was “slightly less than MISO”.

With `O=C1CN(/N=C/c2ccc([N+](=O)[O-])o2)C(=O)N1` [nitrofurantoin] the “toxicity at 2.5 mmol/kg” value [1] was “toxic” and the “enhancement of CCNU response” value (KHT sarcoma; [2]) was “virtually inactive”.
